This note sets out measurements from patent publication US6465654B2, “Process for preparing 1-substituted, 2-substituted 1H-imidazo[4, 5-c]quinoline-4-amines” (3M Innovative Properties Company, priority 1991, dated 2002).

SMILES strings stand for the structures.

The subject of experiment [1] is interferon. Kind of experiment: Interferon induction in mice. As to conditions: mouse serum. It is filed as in vivo. The protocol:
One hour later blood samples are withdrawn from the first group. The samples are pooled then centrifuged. The serum is removed from the centrifuge tube, split into two portions, then placed in freezing vials and maintained at −70° C. until analysis. This procedure is repeated at 2 hours with the second group of mice and at 4 hours with the third group of mice. Samples are assayed as described above in connection with the analysis of interferon induction in human cells. The results are expressed in the table below as α/β reference units/mL based on the value obtained for a mouse MU-1-IF standard. Results are shown in the table below wherein results designated as “<” a certain number indicate that interferon was not detectable in amounts above the lower sensitivity level of the assay.

In experiment [2] the test system is vesicular stomatitis virus (VSV). Kind of experiment: microbe, parasite or virus in culture. It is filed as cell-based. To be noted: Vesicular stomatitis virus, read-out: VSV Yield Inhibition.
In experiment [3] the test system is interferon-α. Kind of experiment: Interferon-α induction in human cells, PBM. It is filed as cell-based. To be noted: 24 hours.

`CC(=O)NCc1nc2c(N)nc3ccccc3c2n1CC(C)C` [Example 15, N-Acetyl-4-amino-1-(2-methylpropyl)-1H-imidazo-[4,5-c]quinoline-2-methanamine]: the “Interferon induction in mice” value in experiment [1] (oral 0.3 mg/kg, 1 hr) is listed as less than 120 Reference Units/mL; in experiment [1] (oral 0.3 mg/kg, 2 hr) it was less than 120 Reference Units/mL; in experiment [1] (oral 0.3 mg/kg, 4 hr) it was less than 120 Reference Units/mL; in experiment [1] (oral 1 mg/kg, 1 hr) it was less than 120 Reference Units/mL; in experiment [1] (oral 1 mg/kg, 2 hr), less than 120 Reference Units/mL; in experiment [1] (oral 1 mg/kg, 4 hr), less than 120 Reference Units/mL. Further, the “Interferon induction in mice” value is listed as less than 120 Reference Units/mL in experiment [1] (oral 3 mg/kg, 1 hr); 270 Reference Units/mL in experiment [1] (oral 3 mg/kg, 2 hr); less than 120 Reference Units/mL in experiment [1] (oral 3 mg/kg, 4 hr); 270 Reference Units/mL in experiment [1] (oral 10 mg/kg, 1 hr); 3100 Reference Units/mL in experiment [1] (oral 10 mg/kg, 2 hr); 270 Reference Units/mL in experiment [1] (oral 10 mg/kg, 4 hr). The log reduction at 1 µg/mL in experiment [2] came to 6. Moreover, the log reduction at 5 µg/mL in experiment [2] turned out to be 5. Also, the log reduction at 10 µg/mL in experiment [2] amounted to 5. In addition, the Interferon-α induction in experiment [3] (dose concentration 0.10 μg/mL) is listed as <1.8 α Reference Units/mL; in experiment [3] (dose concentration 0.50 μg/mL) it was 250 α Reference Units/mL; in experiment [3] (dose concentration 1.0 μg/mL), 430 α Reference Units/mL; in experiment [3] (dose concentration 5.0 μg/mL), 750 α Reference Units/mL.
For the compound `Nc1nc2ccccc2c2c1nc(CO)n2Cc1ccccc1` [Example 27, 4-Amino-1-phenylmethyl-1H-imidazo[4,5-c]-quinoline-2-methanol], the “Interferon induction in mice” value was less than 45 Reference Units/mL in experiment [1] (oral 0.3 mg/kg, 1 hr); less than 45 Reference Units/mL in experiment [1] (oral 0.3 mg/kg, 2 hr); less than 45 Reference Units/mL in experiment [1] (oral 0.3 mg/kg, 4 hr); less than 45 Reference Units/mL in experiment [1] (oral 1 mg/kg, 1 hr); less than 45 Reference Units/mL in experiment [1] (oral 1 mg/kg, 2 hr); less than 45 Reference Units/mL in experiment [1] (oral 1 mg/kg, 4 hr). Also, the “Interferon induction in mice” value was less than 59 Reference Units/mL in experiment [1] (oral 3 mg/kg, 1 hr); 230 Reference Units/mL in experiment [1] (oral 3 mg/kg, 2 hr); less than 45 Reference Units/mL in experiment [1] (oral 3 mg/kg, 4 hr); 130 Reference Units/mL in experiment [1] (oral 10 mg/kg, 1 hr); 690 Reference Units/mL in experiment [1] (oral 10 mg/kg, 2 hr); less than 45 Reference Units/mL in experiment [1] (oral 10 mg/kg, 4 hr). Also, the log reduction at 0.1 µg/mL in experiment [2] turned out to be 4. Also, the log reduction at 0.5 µg/mL in experiment [2] was found to be 3. For the same compound, in experiment [2], the log reduction at 1 µg/mL was 4. For the same compound, the Interferon-α induction in experiment [3] (dose concentration 0.01 μg/mL) is <4 α Reference Units/mL; in experiment [3] (dose concentration 0.05 μg/mL), 24 α Reference Units/mL; in experiment [3] (dose concentration 0.10 μg/mL), 3300 α Reference Units/mL; in experiment [3] (dose concentration 0.50 μg/mL), 550 α Reference Units/mL; in experiment [3] (dose concentration 1.0 μg/mL), 370 α Reference Units/mL; in experiment [3] (dose concentration 5.0 μg/mL), 490 α Reference Units/mL.
For `COC(c1ccccc1)c1nc2c(N)nc3ccccc3c2n1CC(C)C` (stereo not drawn) [Example 51, 2-(α-Methoxybenzyl)-1-(2-methylpropyl)-1H-imidazo[4,5-c]quinolin-4-amine], the log reduction at 0.1 µg/mL in experiment [2] amounted to 0. Also, in experiment [2], the log reduction at 0.5 µg/mL worked out at 1. In addition, the log reduction at 1 µg/mL in experiment [2] is 5. Also, the Interferon-α induction in experiment [3] (dose concentration 0.10 μg/mL) is <5 α Reference Units/mL; in experiment [3] (dose concentration 0.50 μg/mL), <5 α Reference Units/mL; in experiment [3] (dose concentration 1.0 μg/mL), 1000 α Reference Units/mL; in experiment [3] (dose concentration 5.0 μg/mL), 330 α Reference Units/mL.
Take `COCCc1nc2c(N)nc3ccccc3c2n1CC(C)C` [Example 72, 2-(2-Methoxyethyl)-1-(2-methylpropyl)-1H-imidazo[4,5-c]quinolin-4-amine]: the log reduction at 0.1 µg/mL in experiment [2] was determined as 5. The log reduction at 0.5 µg/mL in experiment [2] worked out at 5. The log reduction at 1 µg/mL in experiment [2] amounted to 5. The Interferon-α induction is recorded as 200 α Reference Units/mL in experiment [3] (dose concentration 0.10 μg/mL), 210 α Reference Units/mL in experiment [3] (dose concentration 0.50 μg/mL), 220 α Reference Units/mL in experiment [3] (dose concentration 1.0 μg/mL) and 420 α Reference Units/mL in experiment [3] (dose concentration 5.0 μg/mL).
Regarding `COC(C)Cc1nc2c(N)nc3ccccc3c2n1CC(C)C` (stereo not shown) [Example 77, 2-(2-Methoxypropyl)-1-(2-methylpropyl)-1H-imidazo[4,5-c]quinolin-4-amine], the log reduction at 0.1 µg/mL in experiment [2] is 3. Further, in experiment [2], the log reduction at 0.5 µg/mL worked out at 5. Besides, in experiment [2], the log reduction at 1 µg/mL worked out at 5. Also, the Interferon-α induction in experiment [3] (dose concentration 0.01 μg/mL) is <6.3 α Reference Units/mL; in experiment [3] (dose concentration 0.05 μg/mL), <6.3 α Reference Units/mL; in experiment [3] (dose concentration 0.10 μg/mL), 2600 α Reference Units/mL; in experiment [3] (dose concentration 0.50 μg/mL), 390 α Reference Units/mL; in experiment [3] (dose concentration 1.0 μg/mL) it was 250 α Reference Units/mL; in experiment [3] (dose concentration 5.0 μg/mL), 280 α Reference Units/mL.
Turning to `CC(C)Cn1c(CC(C)O)nc2c(N)nc3ccccc3c21` (stereo not drawn) [Example 81, 4-Amino-α-methyl-1-(2-methylpropyl)-1H-imidazo[4,5-c]quinoline-2-ethanol], the log reduction at 0.1 µg/mL in experiment [2] was 5. Further, the log reduction at 0.5 µg/mL in experiment [2] came to 4. In experiment [2], the log reduction at 1 µg/mL came out at 5. Also, the Interferon-α induction in experiment [3] (dose concentration 0.10 μg/mL) is given as 1100 α Reference Units/mL; in experiment [3] (dose concentration 0.50 μg/mL) it was 2200 α Reference Units/mL; in experiment [3] (dose concentration 1.0 μg/mL), 460 α Reference Units/mL; in experiment [3] (dose concentration 5.0 μg/mL), 1100 α Reference Units/mL.
Turning to `COCc1nc2c(N)nc3ccccc3c2n1Cc1ccccc1` [Example 104, 2-Methoxymethyl-1-phenylmethyl-1H-imidazo[4,5-c]quinolin-4-amine], the “Interferon induction in mice” value in experiment [1] (oral 0.3 mg/kg, 1 hr) was less than 380 Reference Units/mL; in experiment [1] (oral 0.3 mg/kg, 2 hr), less than 380 Reference Units/mL; in experiment [1] (oral 0.3 mg/kg, 4 hr), less than 380 Reference Units/mL; in experiment [1] (oral 1 mg/kg, 1 hr), “˜780 Reference Units/mL”; in experiment [1] (oral 1 mg/kg, 2 hr) it was “˜780 Reference Units/mL”; in experiment [1] (oral 1 mg/kg, 4 hr), “˜380 Reference Units/mL”. The “Interferon induction in mice” value is given as “≦660 Reference Units/mL” in experiment [1] (oral 3 mg/kg, 1 hr); 2200 Reference Units/mL in experiment [1] (oral 3 mg/kg, 2 hr); less than 380 Reference Units/mL in experiment [1] (oral 3 mg/kg, 4 hr); 3400 Reference Units/mL in experiment [1] (oral 10 mg/kg, 1 hr); 4500 Reference Units/mL in experiment [1] (oral 10 mg/kg, 2 hr); “≦660 Reference Units/mL” in experiment [1] (oral 10 mg/kg, 4 hr). Moreover, the Interferon-α induction in experiment [3] (dose concentration 0.01 μg/mL) was <2.7 α Reference Units/mL; in experiment [3] (dose concentration 0.05 μg/mL), <2.7 α Reference Units/mL; in experiment [3] (dose concentration 0.10 μg/mL), 310 α Reference Units/mL; in experiment [3] (dose concentration 0.50 μg/mL) it was 180 α Reference Units/mL; in experiment [3] (dose concentration 1.0 μg/mL), 140 α Reference Units/mL; in experiment [3] (dose concentration 5.0 μg/mL), 310 α Reference Units/mL.
Regarding `CCCCn1c(COCC)nc2c(N)nc3ccccc3c21` [Example 117, 1-Butyl-2-ethoxymethyl-1H-imidazo[4,5-c]quinolin-4-amine], the “Interferon induction in mice” value was less than 160 Reference Units/mL in experiment [1] (oral 0.3 mg/kg, 1 hr); 1200 Reference Units/mL in experiment [1] (oral 0.3 mg/kg, 2 hr); less than 160 Reference Units/mL in experiment [1] (oral 0.3 mg/kg, 4 hr); “≦270 Reference Units/mL” in experiment [1] (oral 1 mg/kg, 1 hr); 630 Reference Units/mL in experiment [1] (oral 1 mg/kg, 2 hr); “≦270 Reference Units/mL” in experiment [1] (oral 1 mg/kg, 4 hr). The “Interferon induction in mice” value in experiment [1] (oral 3 mg/kg, 1 hr) is recorded as “˜820 Reference Units/mL”; in experiment [1] (oral 3 mg/kg, 2 hr) it was 2200 Reference Units/mL; in experiment [1] (oral 3 mg/kg, 4 hr), “˜310 Reference Units/mL”; in experiment [1] (oral 10 mg/kg, 1 hr), 1100 Reference Units/mL; in experiment [1] (oral 10 mg/kg, 2 hr) it was 480 Reference Units/mL; in experiment [1] (oral 10 mg/kg, 4 hr), “˜310 Reference Units/mL”. In addition, the Interferon-α induction in experiment [3] (dose concentration 0.01 μg/mL) was <4.4 α Reference Units/mL; in experiment [3] (dose concentration 0.05 μg/mL), 360 α Reference Units/mL; in experiment [3] (dose concentration 0.10 μg/mL), 340 α Reference Units/mL; in experiment [3] (dose concentration 0.50 μg/mL), 140 α Reference Units/mL; in experiment [3] (dose concentration 1.0 μg/mL), 91 α Reference Units/mL; in experiment [3] (dose concentration 5.0 μg/mL), 110 α Reference Units/mL.
